The values that follow come from patent US20050058733A1, “Health food products” (Daicho Kikaku Incorporated Company, priority 2001, published 2005).

Experiment [1] deals with adrenaline secretion. As to the kind of experiment: animal experiments using mice: secretomotory action on adrenaline, seen as blood glucose elevation. Format: in vivo. The text has this: No studies have been conducted on the efficacy of curcumin, zingerone, or shogaol on the stimulation of adrenaline secretion.
Experiment [2] concerns patients with muscle disorders that occurred with aging. As to the kind of experiment: tablets given to aged patients with muscle disorders (walking difficulties, proctoptosia, backaches, limb pains). In kind it is in vivo, human. The note with it: single regular dose of drugs admixed with one of the substances, without curcumin. From the text: In Western medicine, it has been understood that proctoptosia and leg, lumbus and arm aches are attributable only to hematogenous disorders and resultant inflammation at local sites. […] Thus, it can be understood that these disorders are attributed to insufficient communication of brain commands to local sites and therefore the hematogenous disorders and onset of inflammation are problems caused by abnormal motions of muscles due to incomplete communication of brain commands.

With `COc1cc(CCC(C)=O)ccc1O` [zingerone], the “blood glucose levels (secretomotory action on adrenaline)” value (“blood glucose levels” below) in experiment [1] is “remarkably elevated”.

As to `CCCCC/C=C/C(=O)CCc1ccc(O)c(OC)c1` [shogaol, (6)-shogaol], the “blood glucose levels” value in experiment [1] is recorded as “remarkably elevated”.

Take `C[C@H](CCC(=O)O)[C@H]1CC[C@H]2[C@@H]3[C@H](O)C[C@@H]4C[C@H](O)CC[C@]4(C)[C@H]3C[C@H](O)[C@]12C` [cholic acid]: in experiment [2], the “amelioration of proctoptosia and leg, lumbus and arm aches” value was “not significantly ameliorated”.

`C[C@H](CC[C@@H](O)C(CO)CO)C1CCC2C3C(C[C@H](O)[C@@]21C)[C@@]1(C)CC[C@@H](O)CC1C[C@H]3O` (some centres unmarked) [scymnol, Scymnol]: in experiment [2], the “amelioration of proctoptosia and leg, lumbus and arm aches” value was “not significantly ameliorated”.

On to `COc1cc(/C=C/C(=O)/C=C(O)/C=C/c2ccc(O)c(OC)c2)ccc1O` [curcumin], for which, in experiment [1], the “blood glucose levels” value is “remarkably elevated”.
